For assay [1], the target named is T1, SHP-2 enzyme (Met1-Leu525) (Homo sapiens, UniProt Q06124).
T1 construct: synthetized by Origene, Met1-Leu525, cat #TP750155; purchased Origene TP750155
T1 sequence (Q06124 1-525): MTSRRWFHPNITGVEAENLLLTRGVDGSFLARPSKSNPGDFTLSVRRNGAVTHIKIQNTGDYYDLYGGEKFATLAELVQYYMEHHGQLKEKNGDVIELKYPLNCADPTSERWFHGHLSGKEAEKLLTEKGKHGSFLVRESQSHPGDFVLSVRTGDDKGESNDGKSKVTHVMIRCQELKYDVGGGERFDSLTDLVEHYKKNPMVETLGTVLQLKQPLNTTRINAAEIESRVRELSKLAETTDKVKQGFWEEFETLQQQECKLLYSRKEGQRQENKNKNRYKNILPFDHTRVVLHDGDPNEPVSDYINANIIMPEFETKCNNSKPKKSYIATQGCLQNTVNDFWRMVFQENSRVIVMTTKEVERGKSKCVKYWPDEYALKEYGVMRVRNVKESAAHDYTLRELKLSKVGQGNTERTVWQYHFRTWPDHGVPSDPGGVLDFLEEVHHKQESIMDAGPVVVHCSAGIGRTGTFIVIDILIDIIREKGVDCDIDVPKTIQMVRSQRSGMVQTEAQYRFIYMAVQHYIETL
Kind of assay: SHP2 inhibition enzymatic assay (DiFMUP substrate, IRS1 peptide activation). Format: biochemical. Particulars: 0.5 nM SHP-2, 500 nM IRS1 peptide, 75 μM DiFMUP; read-out: SHP2wt - IC50. As to the method:
Assay volume of 20 μL/well was assembled in 384 well black polystyrene low-binding microplates (Greiner), using the following buffer: 60 mM HEPES pH 7.2, 75 mM NaCl, 75 mM KCl, 1 mM EDTA pH 8, 0.05% tween-20, 5 mM DTT. The SHP-2 enzyme (synthetized by Origene, Met1-Leu525, cat #TP750155) was used at a final concentration of 0.5 nM.
Briefly, DMSO serially diluted testing compounds were transferred to the bottom of the assay plate. SHP2 was then added together with the IRS1 peptide 30 min post incubation, the DiFMUP substrate was added to the reaction and incubated 30 min at rt. […] The fluorescence was detected by a microplate reader (Envision, PerkinElmer) according to the DiFMUP excitation and emission wavelength. The lower the fluorescence the higher the SHP2 inhibition.
The percentage inhibition is fitted against the compound dilutions with a four-parameter logistic regression. The inflection point (i.e. the concentration at which half-maximal inhibition is achieved) is the IC50.

Assay [2] has as its system phospho-ERK1/2 (Thr202/Tyr204) in KYSE-520 cells. Briefly: Phospho-ERK cellular assay (TR-FRET). It is filed as cell-based. Particulars: Homo sapiens, KYSE-520, 2 h, KYSE-520 cells, 2 h at 37° C.; read-out: pERK IC50. Here is the method: ERK phosphorylation was detected using the “Advanced phospho-ERK1/2 (Thr202/Tyr204)” TR-FRET kit (Cisbio, Cat #64AERPEG/H), following the manufacturer reagents and instructions.
Briefly, 20.000/well KYSE-520 cells (DSMZ ACC 371) were plated in 6 μL RPMI-1640 (Invitrogen) growth medium, into 384 white low-volume high base TC microplates (Greiner). After an overnight incubation, cells were treated with DMSO serial diluted compounds and incubated for 2 h at 37° C. After incubation, 2 μL/well of 4X Lysis Buffer (Cisbio 64KL1FDF), were added and incubated with cells for 30 min on gentle shaking. Finally, lysates were added with 2 μL/well of Eu cryptate (donor) and D2 (acceptor) conjugated antibodies (as provided by the Cisbio kit #64AERPEG/H) diluted 1:100 in Detection Buffer (as provided by the Cisbio kit #64AERPEG/H). Plates were then sealed and incubated at rt in the dark. After an overnight incubation, the TR-FRET signal was detected on a suitable reader (Envision, PerkinElmer). The lower the TR-FRET signal the higher the higher the SHP2 inhibition in cells.
The activity of each compound dilution was calculated as percentage between vehicle DMSO treated cells and no cells, 0% inhibition and 100% inhibition respectively. The percentage activity is fitted against the compound dilutions with a four-parameter logistic regression. The inflection point (i.e. the concentration at which half-maximal inhibition is achieved) is the IC50.

Structures are written as SMILES.

As usually defined, the IC50 is the midpoint of a concentration-inhibition curve. As to `CNC(=O)c1ccn(-c2nccc(Sc3cnc(N4CCC5(CC4)Cn4nccc4[C@H]5N)cn3)c2Cl)c1` [Example 67, (S)-1-(4-((5-(4′-amino-4′H,6′H-spiro[piperidine-4,5′-pyrrolo[1,2-b]pyrazol]-1-yl)pyrazin-2-yl)thio)-3-chloropyridin-2-yl)-N-methyl-1H-pyrrole-3-carboxamide], the 50% inhibitory concentration (IC50) in assay [1] was ≤ 50 nM; in assay [2], < 100 nM.

With `Nc1nccc(Sc2cnc(N3CCC4(CC3)Cn3cnnc3[C@H]4N)cn2)c1Cl` [Example 42, (S)-1-(5-((2-amino-3-chloropyridin-4-yl)thio)pyrazin-2-yl)-5′H,7′H-spiro[piperidine-4,6′-pyrrolo[2,1-c][1,2,4]triazol]-7′-amine], the IC50 is 50 to 300 nM in assay [1] and > 500 nM in assay [2].

Consider `Cc1cn2ccc(Sc3ncc(N4CCC5(CC4)Cn4nccc4[C@H]5N)nc3N)c(Cl)c2n1` [Example 64, (S)-1-(6-amino-5-((8-chloro-2-methylimidazo[1,2-a]pyridin-7-yl)thio)pyrazin-2-yl)-4′H,6′H-spiro[piperidine-4,5′-pyrrolo[1,2-b]pyrazol]-4′-amine], for which the figures for the IC50 in assay [1] and in assay [2] were ≤ 50 nM and < 100 nM, respectively.

Regarding `N#Cc1cn2ccc(Sc3cnc(N4CCC5(CC4)Cn4nccc4[C@H]5N)cn3)c(Cl)c2n1` [Example 57, (S)-7-((5-(4′-amino-4′H,6′H-spiro[piperidine-4,5′-pyrrolo[1,2-b]pyrazol]-1-yl)pyrazin-2-yl)thio)-8-chloroimidazo[1,2-a]pyridine-2-carbonitrile], the IC50 in assay [1] was ≤ 50 nM; in assay [2] it was < 100 nM.

For `Nc1nccc(Sc2ccc(N3CCC4(CC3)Cn3nccc3[C@H]4N)nn2)c1Cl` [Example 35, (S)-1-(6-((2-amino-3-chloropyridin-4-yl)thio)pyridazin-3-yl)-4′H,6′H-spiro[piperidine-4,5′-pyrrolo[1,2-b]pyrazol]-4′-amine], the half-maximal inhibitory concentration (IC50) in assay [1] was ≤ 50 nM; in assay [2], 100 to 500 nM.

`Nc1nccc(Sc2cnc(N3CCC4(CC3)Cn3nc5c(c3C4O)CCC5)c3cncn23)c1Cl` (centres unmarked) [Example 22, 1′-(5-((2-amino-3-chloropyridin-4-yl)thio)imidazo[1,5-a]pyrazin-8-yl)-1,2,3,8-tetrahydro-6H-spiro[cyclopenta[d]pyrrolo[1,2-b]pyrazole-7,4′-piperidin]-8-ol]: the 50% inhibitory concentration (IC50) in assay [1] was > 300 nM; in assay [2], > 500 nM.

Take `Nc1cnc(Sc2cnc(N3CCC4(CC3)Cn3nccc3[C@H]4N)cn2)c(Cl)n1` [Example 47, (S)-1-(5-((5-amino-3-chloropyrazin-2-yl)thio)pyrazin-2-yl)-4′H,6′H-spiro[piperidine-4,5′-pyrrolo[1,2-b]pyrazol]-4′-amine]: the figures for the 50% inhibitory concentration (IC50) in assay [1] and in assay [2] were ≤ 50 nM and < 100 nM, respectively.

On to `Nc1nccc(Sc2cnc3[nH]c(N4CCC5(CC4)Cn4nccc4[C@H]5N)nc3n2)c1Cl` [Example 2, (S)-1-(5-((2-amino-3-chloropyridin-4-yl)thio)-1H-imidazo[4,5-b]pyrazin-2-yl)-4′H,6′H-spiro[piperidine-4,5′-pyrrolo[1,2-b]pyrazol]-4′-amine], for which the concentration for half-maximal inhibition (IC50) in assay [1] is ≤ 50 nM; in assay [2], > 500 nM.

As for `Cc1nccc(Sc2cnc(N3CCC4(CC3)Cn3nccc3[C@H]4N)cn2)c1F` [Example 81, (S)-1-(5-((3-fluoro-2-methylpyridin-4-yl)thio)pyrazin-2-yl)-4′H,6′H-spiro[piperidine-4,5′-pyrrolo[1,2-b]pyrazol]-4′-amine], the IC50 in assay [1] was ≤ 50 nM; in assay [2], < 100 nM.

In the case of `Nc1nc(N2CCC3(CC2)Cn2nncc2[C@H]3N)cnc1Sc1ccnc(N)c1Cl` [Example 37, (S)-1-(6-amino-5-((2-amino-3-chloropyridin-4-yl)thio)pyrazin-2-yl)-4′H,6′H-spiro[piperidine-4,5′-pyrrolo[1,2-c][1,2,3]triazol]-4′-amine], the 50% inhibitory concentration (IC50) in assay [1] is ≤ 50 nM; in assay [2] it was 100 to 500 nM.

On to `N[C@@H]1c2ccnn2CC12CCN(c1cnc(Sc3ccnc4c(F)cccc34)cn1)CC2` [Example 79, (S)-1-(5-((8-fluoroquinolin-4-yl)thio)pyrazin-2-yl)-4′H,6′H-spiro[piperidine-4,5′-pyrrolo[1,2-b]pyrazol]-4′-amine], for which the 50% inhibitory concentration (IC50) in assay [1] was ≤ 50 nM; in assay [2], < 100 nM.

As for `N[C@@H]1c2ccnn2CC12CCN(c1cnc(Sc3ccc4nccn4c3Cl)cn1)CC2` [Example 56, (S)-1-(5-((5-chloroimidazo[1,2-a]pyridin-6-yl)thio)pyrazin-2-yl)-4′H,6′H-spiro[piperidine-4,5′-pyrrolo[1,2-b]pyrazol]-4′-amine], the IC50 was ≤ 50 nM in assay [1] and < 100 nM in assay [2].

Regarding `Nc1nc(N2CCC3(CC2)Cn2nc4c(c2[C@H]3N)CCC4)cnc1Sc1ccnc(N)c1Cl` [Example 20, (S)-1′-(6-amino-5-((2-amino-3-chloropyridin-4-yl)thio)pyrazin-2-yl)-1,2,3,8-tetrahydro-6H-spiro[cyclopenta[d]pyrrolo[1,2-b]pyrazole-7,4′-piperidin]-8-amine], the IC50 in assay [1] was ≤ 50 nM; in assay [2], < 100 nM.

Take `Nc1nccc(Sc2ncc(N3CCC4(CC3)Cn3nccc3[C@H]4N)n3cncc23)c1Cl` [Example 30, (S)-1-(8-((2-amino-3-chloropyridin-4-yl)thio)imidazo[1,5-a]pyrazin-5-yl)-4′H,6′H-spiro[piperidine-4,5′-pyrrolo[1,2-b]pyrazol]-4′-amine]: the values for the concentration for half-maximal inhibition (IC50) in assay [1] and in assay [2] were > 300 nM and > 500 nM, respectively.

Turning to `N[C@@H]1c2ccnn2CC12CCN(c1nc3nc(Sc4cccnc4C(F)(F)F)cnc3[nH]1)CC2` [Example 1, (S)-1-(5-((2-(trifluoromethyl)pyridin-3-yl)thio)-1H-imidazo[4,5-b]pyrazin-2-yl)-4′H,6′H-spiro[piperidine-4,5′-pyrrolo[1,2-b]pyrazol]-4′-amine], the IC50 was ≤ 50 nM in assay [1] and > 500 nM in assay [2].

As for `N[C@@H]1c2ccnn2CC12CCN(c1ncc(Sc3ccn4ccnc4c3Cl)n3cncc13)CC2` [Example 32, (S)-1-(5-((8-chloroimidazo[1,2-a]pyridin-7-yl)thio)imidazo[1,5-a]pyrazin-8-yl)-4′H,6′H-spiro[piperidine-4,5′-pyrrolo[1,2-b]pyrazol]-4′-amine], the IC50 in assay [1] is ≤ 50 nM; in assay [2], 100 to 500 nM.

For `N[C@@H]1c2ccnn2CC12CCN(c1cnc(Sc3ccnc(-n4ccnc4)c3Cl)cn1)CC2` [Example 59, (S)-1-(5-((3-chloro-2-(1H-imidazol-1-yl)pyridin-4-yl)thio)pyrazin-2-yl)-4′H,6′H-spiro[piperidine-4,5′-pyrrolo[1,2-b]pyrazol]-4′-amine], the values for the concentration for half-maximal inhibition (IC50) in assay [1] and in assay [2] were ≤ 50 nM and < 100 nM, respectively.

Consider `Cc1nc(N2CCC3(CC2)Cn2nccc2[C@H]3N)c(Cl)c(=O)n1-c1cccc(Cl)c1Cl` [Example 78, (S)-6-(4′-amino-4′H,6′H-spiro[piperidine-4,5′-pyrrolo[1,2-b]pyrazol]-1-yl)-5-chloro-3-(2,3-dichlorophenyl)-2-methylpyrimidin-4(3H)-one], for which the values for the half-inhibitory concentration (IC50) in assay [1] and in assay [2] were ≤ 50 nM and 100 to 500 nM, respectively.

Consider `N[C@@H]1c2cnnn2CC12CCN(c1cnc3c(-c4cccc(Cl)c4Cl)n[nH]c3n1)CC2` [Example 41, (S)-1-(3-(2,3-dichlorophenyl)-1H-pyrazolo[3,4-b]pyrazin-6-yl)-4′H,6′H-spiro[piperidine-4,5′-pyrrolo[1,2-c][1,2,3]triazol]-4′-amine], for which the figures for the half-inhibitory concentration (IC50) in assay [1] and in assay [2] were ≤ 50 nM and > 500 nM, respectively.

Source of the values: US20240239799A1, “(S)-1-(5-((PYRIDIN-3-YL)THIO)PYRAZIN-2-YL)-4'H,6'H-SPIRO[PIPERIDINE-4,5'-PYRROLO [1,2-B]PYRAZOL]-4'-AMINE DERIVATIVES AND SIMILAR COMPOUNDS AS SHP2 INHIBITORS FOR THE TREATMENT OF E.G. CANCER” (C.N.C.C.S. S.C.A.R.L. COLLEZIONE NAZIONALE DEI COMPOSTI …, priority 2021, published 2024).
